Measured values published in PMC3914206.

Columns and labels:
panel of 442 kinases [1] = target: T1, panel of 442 kinases (Homo sapiens, UniProt O15146); assay type: binding; settings: Compound Concentration 10 µM
T1 construct: purchased KINOMEscan
T1 sequence (O15146 24-869): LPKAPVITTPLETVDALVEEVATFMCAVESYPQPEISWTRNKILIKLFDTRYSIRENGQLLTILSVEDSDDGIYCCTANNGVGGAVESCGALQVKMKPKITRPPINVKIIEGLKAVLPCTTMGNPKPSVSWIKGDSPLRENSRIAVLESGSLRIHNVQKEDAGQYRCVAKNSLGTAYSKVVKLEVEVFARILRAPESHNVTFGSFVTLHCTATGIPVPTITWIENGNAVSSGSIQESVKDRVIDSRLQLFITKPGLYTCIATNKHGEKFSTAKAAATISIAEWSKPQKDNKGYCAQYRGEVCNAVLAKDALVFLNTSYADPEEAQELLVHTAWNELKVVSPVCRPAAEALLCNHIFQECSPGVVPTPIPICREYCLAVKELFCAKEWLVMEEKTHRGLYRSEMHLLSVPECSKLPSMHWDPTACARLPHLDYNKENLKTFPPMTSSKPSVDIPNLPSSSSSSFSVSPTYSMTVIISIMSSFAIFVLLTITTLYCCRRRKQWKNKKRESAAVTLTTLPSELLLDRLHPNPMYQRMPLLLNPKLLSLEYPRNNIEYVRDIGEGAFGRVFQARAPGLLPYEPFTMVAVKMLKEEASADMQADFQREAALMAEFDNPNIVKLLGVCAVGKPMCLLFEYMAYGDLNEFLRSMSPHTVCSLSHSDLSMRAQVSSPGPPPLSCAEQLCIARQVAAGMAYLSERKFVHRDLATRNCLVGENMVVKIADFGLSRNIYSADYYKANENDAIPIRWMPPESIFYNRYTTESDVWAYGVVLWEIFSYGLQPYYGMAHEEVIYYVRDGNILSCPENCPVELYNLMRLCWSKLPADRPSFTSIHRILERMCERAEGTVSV
Description: (§1) We assessed the selectivity of members of this scaffold using the KINOMEscan methodology across a near comprehensive panel of 442 kinases [[18,27]].

panel of 442 kinases [2] = target: T2, panel of 442 kinases (Homo sapiens, UniProt Q13177); assay type: binding; settings: Compound Concentration 10 µM
T2 construct: purchased KINOMEscan
Description: as §1

T2 sequence (Q13177 whole entry): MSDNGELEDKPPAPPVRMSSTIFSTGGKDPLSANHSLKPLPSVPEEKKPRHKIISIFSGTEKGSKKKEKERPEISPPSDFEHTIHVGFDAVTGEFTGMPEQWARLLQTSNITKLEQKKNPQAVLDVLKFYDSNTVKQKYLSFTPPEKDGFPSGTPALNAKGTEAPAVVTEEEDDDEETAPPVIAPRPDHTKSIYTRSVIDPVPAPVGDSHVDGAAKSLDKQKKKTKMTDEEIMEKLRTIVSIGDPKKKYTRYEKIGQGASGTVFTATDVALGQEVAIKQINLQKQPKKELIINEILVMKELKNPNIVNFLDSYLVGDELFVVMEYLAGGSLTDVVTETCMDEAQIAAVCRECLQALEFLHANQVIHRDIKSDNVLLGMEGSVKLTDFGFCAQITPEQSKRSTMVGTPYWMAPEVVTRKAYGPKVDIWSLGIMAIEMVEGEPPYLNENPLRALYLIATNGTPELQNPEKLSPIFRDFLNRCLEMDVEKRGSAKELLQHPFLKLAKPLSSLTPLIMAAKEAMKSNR

SMILES | KINOMEscan: MUSK (panel of 442 kinases [1]) | KINOMEscan: PAK2 (panel of 442 kinases [2])
COc1cc(C(=O)N2CCC(N3CCN(C)CC3)CC2)ccc1Nc1ncc2c(n1)N(C)c1ccccc1C(=O)N2C [15 (LRRK2-IN-1)] | 99 | 65
COc1cc(C(=O)N2CCC(N3CCN(C)CC3)CC2)ccc1Nc1ncc2c(n1)N(C1CCCC1)c1ccccc1C(=O)N2C [Compound 25, 11-cyclopentyl-2-((2-methoxy-4-(4-(4-methylpiperazin-1-yl)piperidine-1-carbonyl)phenyl)amino)-5-methyl-5H-benzo[e]pyrimido[5,4-b][1,4]diazepin-6(11H)-one] | 100 | 90
CCOc1cc(C(=O)N2CCC(N3CCN(C)CC3)CC2)ccc1Nc1ncc2c(n1)N(C1CCCC1)c1ccccc1C(=O)N2C [Compound 26] | 100 | 92
